Experimental data as given in ChEMBL document CHEMBL1201862, “PubChem BioAssay data set” (2004).
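Growth conditions: 96-well plates. Treatment: test compound, 48 hours, 5 concentrations. Analysis: linear interpolation between bracketing concentrations; unreached endpoints set to highest concentration. GI50 marks 50% less growth.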 Calls of active or inactive are those of the source. Cut-off read from the data, not from the text of the source: active = GI50 up to about 1.1 µM and inactive = higher.

Experiments:
Test in all cases: DTP human tumour cell line panel, 48 h
RXF 631 = test system: RXF 631
LXFL 529 = test system: LXFL 529
M19-MEL = test system: M19-MEL
HOP-18 = test system: HOP-18
KM-20L2 = test system: KM-20L2
DMS-114 = test system: DMS-114
DLD-1 = test system: DLD-1
SNB-78 = test system: SNB-78
XF498 = test system: XF498

COCN1COCN/C1=N\C#N
GI50 (RXF 631): > 100 µM (inactive)
GI50 (LXFL 529): > 100 µM (inactive)
GI50 (M19-MEL): > 100 µM (inactive)
GI50 (HOP-18): > 100 µM (inactive)
GI50 (KM-20L2): > 100 µM (inactive)
GI50 (DMS-114): > 100 µM (inactive)
GI50 (DLD-1): > 100 µM (inactive)
GI50 (SNB-78): > 100 µM (inactive)
GI50 (XF498): > 100 µM (inactive)

CC(Oc1ccc(OCC2CCCCC2)cc1)C(=O)NCc1ccco1 (centres undefined)
GI50 (LXFL 529): 35.6 µM (inactive)
GI50 (M19-MEL): 40.7 µM (inactive)
GI50 (HOP-18): 89.7 µM (inactive)
GI50 (DMS-114): 18.4 µM (inactive)
GI50 (DLD-1): 34.9 µM (inactive)
GI50 (SNB-78): 58.6 µM (inactive)
GI50 (XF498): 17.7 µM (inactive)

O=C1CC(c2c(-c3ccccc3)[nH]c3ccccc23)C(=O)N1 (centres undefined)
GI50 (RXF 631): > 100 µM (inactive)
GI50 (LXFL 529): > 100 µM (inactive)
GI50 (M19-MEL): > 100 µM (inactive)
GI50 (KM-20L2): > 100 µM (inactive)
GI50 (DMS-114): > 100 µM (inactive)
GI50 (DLD-1): > 100 µM (inactive)
GI50 (SNB-78): > 100 µM (inactive)
GI50 (XF498): > 100 µM (inactive)

CN1C(=O)N(C)C(N2CCCC2)c2c1nc1ccccn1c2=O (centres undefined)
GI50 (LXFL 529): 63.5 µM (inactive)
GI50 (M19-MEL): 92.5 µM (inactive)
GI50 (HOP-18): > 100 µM (inactive)
GI50 (KM-20L2): > 100 µM (inactive)
GI50 (DMS-114): 56.2 µM (inactive)
GI50 (DLD-1): 35.3 µM (inactive)
GI50 (SNB-78): 57.4 µM (inactive)
GI50 (XF498): 77.8 µM (inactive)

COC(=O)C(=O)Cc1nc2ccccc2s1
GI50 (LXFL 529): > 100 µM (inactive)
GI50 (M19-MEL): > 100 µM (inactive)
GI50 (HOP-18): > 100 µM (inactive)
GI50 (KM-20L2): > 100 µM (inactive)
GI50 (DMS-114): > 100 µM (inactive)
GI50 (DLD-1): > 100 µM (inactive)
GI50 (SNB-78): > 100 µM (inactive)

CC[C@]1(O)C[C@H]2CN(CCc3c([nH]c4ccccc34)[C@@](C(=O)OC)(c3cc4c(cc3OC)N(C)[C@H]3[C@@](O)(C(=O)OC)[C@H](OC(C)=O)[C@]5(CC)C=CCN6CC[C@]43[C@@H]65)C2)C1
GI50 (RXF 631): 0.00262 µM (active)
GI50 (LXFL 529): 0.00045 µM (active)
GI50 (HOP-18): 0.573 µM (active)
GI50 (KM-20L2): 0.000397 µM (active)
GI50 (DLD-1): 0.00433 µM (active)
GI50 (SNB-78): 0.00173 µM (active)
GI50 (XF498): 0.000402 µM (active)

COC(=O)C(=O)C(C(=O)C=C(C)C)C(=O)C(=O)Nc1cccc(C(C)=O)c1 (centres undefined)
GI50 (RXF 631): > 100 µM (inactive)
GI50 (LXFL 529): > 100 µM (inactive)
GI50 (M19-MEL): > 100 µM (inactive)
GI50 (HOP-18): > 100 µM (inactive)
GI50 (KM-20L2): > 100 µM (inactive)
GI50 (DMS-114): > 100 µM (inactive)
GI50 (DLD-1): > 100 µM (inactive)
GI50 (SNB-78): > 100 µM (inactive)
GI50 (XF498): > 100 µM (inactive)

Cc1ccc(S(=O)(=O)NC(C)C(=O)O)cc1 (centres undefined)
GI50 (RXF 631): > 100 µM (inactive)
GI50 (LXFL 529): > 100 µM (inactive)
GI50 (M19-MEL): > 100 µM (inactive)
GI50 (HOP-18): > 100 µM (inactive)
GI50 (KM-20L2): > 100 µM (inactive)
GI50 (DLD-1): > 100 µM (inactive)
GI50 (XF498): > 100 µM (inactive)

Cc1ccc(S(=O)(=O)N2c3ccccc3[C@H]3CCC=C[C@H]32)cc1
GI50 (RXF 631): 10.8 µM (inactive)
GI50 (LXFL 529): 9.55 µM (inactive)
GI50 (M19-MEL): 4.68 µM (inactive)
GI50 (HOP-18): 59.3 µM (inactive)
GI50 (KM-20L2): 3.18 µM (inactive)
GI50 (DMS-114): 3.12 µM (inactive)
GI50 (DLD-1): 13.3 µM (inactive)
GI50 (SNB-78): 19.2 µM (inactive)
GI50 (XF498): 8.65 µM (inactive)

Cc1c(/C=N/NS(=O)(=O)c2ccccc2)no[n+]1[O-]
GI50 (LXFL 529): > 100 µM (inactive)
GI50 (HOP-18): > 100 µM (inactive)
GI50 (KM-20L2): > 100 µM (inactive)
GI50 (DMS-114): > 100 µM (inactive)

CC(CCCOC(c1ccccc1)(c1ccccc1)c1ccccc1)OC(=O)Nc1cc([N+](=O)[O-])cc([N+](=O)[O-])c1 (centres undefined)
GI50 (RXF 631): 38.2 µM (inactive)
GI50 (LXFL 529): 29.2 µM (inactive)
GI50 (M19-MEL): 40.3 µM (inactive)
GI50 (DMS-114): 30.6 µM (inactive)
GI50 (DLD-1): 30.1 µM (inactive)

O=C1C=CC(S(=O)(=O)C2=C/C(=C/Nc3ccc(Cl)cc3)C(=O)C=C2)=C/C1=C/Nc1ccc(Cl)cc1
GI50 (RXF 631): > 100 µM (inactive)
GI50 (LXFL 529): > 100 µM (inactive)
GI50 (M19-MEL): > 100 µM (inactive)
GI50 (HOP-18): > 100 µM (inactive)
GI50 (KM-20L2): > 100 µM (inactive)
GI50 (DMS-114): > 100 µM (inactive)
GI50 (DLD-1): > 100 µM (inactive)

FC(F)(F)C12C34C=CC5(CCC6(C=CC1(CC3)O6)C52C(F)(F)F)O4 (centres undefined)
GI50 (LXFL 529): > 100 µM (inactive)
GI50 (M19-MEL): > 100 µM (inactive)
GI50 (HOP-18): > 100 µM (inactive)
GI50 (KM-20L2): > 100 µM (inactive)
GI50 (SNB-78): > 100 µM (inactive)
GI50 (XF498): > 100 µM (inactive)

N#CC1(C2SCC[S+]2[O-])C2=C(C(=O)c3ccccc3C2=O)N2CCCC21 (centres undefined)
GI50 (RXF 631): 1.46 µM (inactive)
GI50 (LXFL 529): 2.74 µM (inactive)
GI50 (M19-MEL): 0.286 µM (active)
GI50 (HOP-18): 3.25 µM (inactive)
GI50 (KM-20L2): 4.97 µM (inactive)
GI50 (DMS-114): 2.14 µM (inactive)
GI50 (DLD-1): 2.74 µM (inactive)
GI50 (SNB-78): 1.49 µM (inactive)
GI50 (XF498): 2.55 µM (inactive)

Cn1c(N)[n+](C(=O)OCc2ccccc2)c(=O)c2c1ncn2C(=O)OCc1ccccc1
GI50 (LXFL 529): > 100 µM (inactive)
GI50 (M19-MEL): > 100 µM (inactive)
GI50 (HOP-18): 78.9 µM (inactive)
GI50 (KM-20L2): > 100 µM (inactive)
GI50 (DMS-114): 99.8 µM (inactive)
GI50 (DLD-1): 95.1 µM (inactive)
GI50 (SNB-78): 41.5 µM (inactive)

CC(=O)OC[C@]1(C)CCCC2(C)C1CCC1C=C(C)[C@H]3CCC12C3 (some centres undefined)
GI50 (LXFL 529): > 100 µM (inactive)
GI50 (M19-MEL): 63.4 µM (inactive)
GI50 (KM-20L2): 42.9 µM (inactive)
GI50 (DLD-1): 99.3 µM (inactive)
GI50 (SNB-78): 45.9 µM (inactive)

CCCCCCCCCCCCCCCCSS(C)(=O)=O
GI50 (RXF 631): 16.3 µM (inactive)
GI50 (LXFL 529): 8.75 µM (inactive)
GI50 (HOP-18): 58.7 µM (inactive)
GI50 (KM-20L2): 37.6 µM (inactive)
GI50 (DLD-1): 11.6 µM (inactive)
GI50 (XF498): 6.1 µM (inactive)

CCCCCCCCC/C=C/C=C/C(=O)NCC(=O)NC1C(O)C(O)C(Nc2ncnc3[nH]cnc23)OC1C(O)CO (centres undefined)
GI50 (LXFL 529): 0.00838 µM (active)
GI50 (M19-MEL): 0.001 µM (active)
GI50 (KM-20L2): 0.001 µM (active)
GI50 (DMS-114): 0.0551 µM (active)
GI50 (DLD-1): 0.0655 µM (active)

COc1cc2ccc3c4cc(OC)c(OCc5ccccc5)cc4cnc3c2cc1OC
GI50 (LXFL 529): > 100 µM (inactive)
GI50 (M19-MEL): > 100 µM (inactive)
GI50 (KM-20L2): > 100 µM (inactive)
GI50 (DMS-114): > 100 µM (inactive)
GI50 (DLD-1): > 100 µM (inactive)
GI50 (SNB-78): > 100 µM (inactive)
GI50 (XF498): > 100 µM (inactive)

CCOC(=O)c1c(NNc2ccccc2)nc2ccccc2c1-c1ccccc1
GI50 (LXFL 529): 19 µM (inactive)
GI50 (M19-MEL): 24.3 µM (inactive)
GI50 (HOP-18): 28.6 µM (inactive)
GI50 (KM-20L2): 35.5 µM (inactive)
GI50 (DMS-114): 17.1 µM (inactive)
GI50 (DLD-1): 25.9 µM (inactive)
GI50 (SNB-78): 27 µM (inactive)

N#C/N=C(/N)NCc1ccccc1
GI50 (LXFL 529): > 100 µM (inactive)
GI50 (M19-MEL): > 100 µM (inactive)
GI50 (KM-20L2): > 100 µM (inactive)
GI50 (DMS-114): > 100 µM (inactive)
GI50 (DLD-1): > 100 µM (inactive)
